{"source": "PubChem BioAssay AID1963597", "about": "(National Center for Advancing Translational Sciences (NCATS), 2024)", "data": [{"tested_on": "human liver microsomes, metabolic stability half-life", "experiment": "NCATS Human Liver Microsomal (HLM) Stability Profiling", "details": "higher = more stable; screened at 1 µM (by protocol)", "summary_of_the_method": "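Half-life derived from parent loss over 0–60 min (0, 5, 10, 15, 30, 60 min) at 37 °C. Incubations: 0.5 mg/mL microsomes, 1 µM test article, NADPH regeneration, pH 7.4 phosphate; quenched in acetonitrile containing albendazole, analysed by MS.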", "units": {"half-life": "min"}, "values": [{"smiles": "FC(F)(F)Oc1ccc(-c2ccc3nnc(C(F)(F)F)n3c2)cc1", "half-life": "> 120"}, {"smiles": "CCc1cccc2cc(C(O)CNC(C)(C)C)oc12", "note": "(stereo not given)", "half-life": 96.4}, {"smiles": "CN(C)S(=O)(=O)c1ccc(S(=O)(=O)N(Cc2ccco2)Cc2ccccc2Cl)cc1", "half-life": 3.33}, {"smiles": "COc1ccc(C(=O)c2ccccc2O)c(O)c1", "half-life": 8.9}, {"smiles": "Cc1ccc(S(=O)(=O)Nc2ccccc2N2CCCCC2)cc1", "half-life": 3.04}, {"smiles": "NC(=NCCCCCCN=C(N)/N=C(\\N)Nc1ccc(Cl)cc1)/N=C(\\N)Nc1ccc(Cl)cc1", "half-life": "> 120"}, {"smiles": "O=C(N[C@@H]1CC[C@@H](c2cccc(F)c2F)CN(CC(F)(F)F)C1=O)N1CCC(n2c(=O)[nH]c3ncccc32)CC1", "half-life": 60.2}, {"smiles": "COCC(C)N(C(=O)CCl)c1c(C)csc1C", "note": "(stereo not given)", "half-life": 10.9}, {"smiles": "Cc1nn2c(c1-c1ccccc1Oc1ccccc1)N(Cc1cccc(C#N)c1)CCC2", "half-life": 0.77}, {"smiles": "NC(=O)[C@H]1CCS[C@@H]2C[C@]3(CCCN3C(=O)Cc3ccc(NC(=O)COc4ccc(Cl)cc4Cl)cc3)C(=O)N12", "half-life": 7.68}, {"smiles": "Cc1cccc(C=NNc2cc(N3CCOCC3)nc(OCCc3ccccn3)n2)c1", "half-life": 16}, {"smiles": "COc1cc(C(=O)OC(COCCC(C)C)CN2CCOCC2)cc(OC)c1OC", "note": "(stereo not given)", "half-life": 2.43}, {"smiles": "CC1(C)C(=O)N(c2ccc(C#N)c(C(F)(F)F)c2)C(=S)N1c1ccc(C(N)=O)c(F)c1", "half-life": "> 120"}, {"smiles": "O=C(Nc1cccc(C(F)(F)F)c1)Nc1cc(S(=O)(=O)NC2CC2)ccc1-c1ccsc1", "half-life": 4.46}, {"smiles": "Cc1nc2c3ccccc3nc(NNC(=O)CCC(=O)N3CCN(c4ccccc4)CC3)n2n1", "half-life": 107}, {"smiles": "CCCNC(=O)C1CCC(Cn2c(=O)c3sccc3n(CC(=O)NCc3ccccc3)c2=O)CC1", "note": "(stereo not given)", "half-life": 11.2}, {"smiles": "CC(C)CN1C(=O)c2cccn2CC1C(=O)N1CCN(C)CC1", "note": "(stereo not given)", "half-life": 62.8}, {"smiles": "COC(=O)C1=C(C)NC(C)=C(C(=O)O[C@@H]2CCCN(Cc3ccccc3)C2)[C@@H]1c1cccc([N+](=O)[O-])c1", "half-life": 1.93}, {"smiles": "Nc1nc2ccccc2n1Cc1ccc(F)cc1", "half-life": "> 120"}, {"smiles": "CC(C)(C)c1ccc(C(=O)Nc2cc(Cl)c(Br)cc2C(=O)O)cc1", "half-life": 6.17}, {"smiles": "COc1ccc(Nc2nnc(-c3ccc(C)c(S(=O)(=O)NCc4nc5ccccc5[nH]4)c3)c3ccccc23)cc1", "half-life": 5.8}, {"smiles": "CC1(C)SCCN(S(=O)(=O)c2ccc(OCC#CCO)cc2)[C@@H]1C(=O)NO", "half-life": "> 120"}, {"smiles": "COc1cc(OC)cc(OC)c1", "half-life": 18.1}, {"smiles": "C1N2CN3CN1CN(C2)C3", "half-life": 30.5}, {"smiles": "Cc1nc(N)nc(N)c1-c1ccc(Cl)c(Cl)c1", "half-life": "> 120"}, {"smiles": "Cc1cccc(N2CCN(C(=O)c3cccn3-c3nnc(N4CCCCC4)s3)CC2)c1C", "half-life": 3.17}, {"smiles": "CN1c2cc(C(=O)Nc3ccc(S(N)(=O)=O)cc3)ccc2C(=O)N2CCCCC21", "note": "(stereo not given)", "half-life": 32.8}, {"smiles": "COc1ccccc1CN[C@H]1C2CCN(CC2)[C@H]1C(c1ccccc1)c1ccccc1", "half-life": 35}, {"smiles": "CCN1CCc2nc(N)oc2CC1", "half-life": 112}, {"smiles": "Cc1cncn1CCc1nc2c3ccccc3nc(SCC(=O)Nc3cccc(Cl)c3)n2n1", "half-life": 11.6}, {"smiles": "COc1cccc2c1C(=O)c1c(O)c3c(c(O)c1C2=O)C[C@@](O)(C(=O)CO)C[C@@H]3O[C@H]1C[C@H](N)[C@H](O[C@@H]2CCCCO2)[C@H](C)O1", "half-life": "> 120"}, {"smiles": "COc1cc(C(c2c(C)[nH][nH]c2=O)c2c(C)[nH][nH]c2=O)ccc1OC(=O)c1ccccc1F", "half-life": 1.83}, {"smiles": "C=CC1=C(C(=O)O)N2C(=O)[C@@H](NC(=O)/C(=N\\OCC(=O)O)c3csc(N)n3)[C@H]2SC1", "half-life": "> 120"}, {"smiles": "NC(=O)c1c(OCc2c(F)cc(Br)cc2F)nsc1NC(=O)NCCCCN1CCCC1", "half-life": "> 120"}, {"smiles": "C[C@@H]1O[C@@H](OC[C@H]2O[C@@H](Oc3c(-c4ccc(O)c(O)c4)oc4cc(O)cc(O)c4c3=O)[C@H](O)[C@@H](O)[C@@H]2O)[C@H](O)[C@H](O)[C@H]1O", "half-life": "> 120"}, {"smiles": "OCCN1CCN(CCCN2c3ccccc3C=Cc3ccccc32)CC1", "half-life": "> 120"}, {"smiles": "COCCn1c(SCC(=O)Nc2ccc(F)c(Cl)c2)nc2c(oc3ccccc32)c1=O", "half-life": 7.26}, {"smiles": "C[C@@H](Oc1cc(-n2cnc3ccc(OC4CCN(C)CC4)cc32)sc1C(N)=O)c1ccccc1C(F)(F)F", "half-life": 8.99}, {"smiles": "CC(C)(C)c1ccc(-c2nc3c(N4CCN(Cc5ccc6nccnc6c5)CC4)cccc3[nH]2)cc1", "half-life": 20.5}, {"smiles": "O=c1[nH]c2cccc(N3CCN(Cc4ccc(-c5ccccc5)cc4)CC3)c2o1", "half-life": 31.7}, {"smiles": "C[C@@H]1O[C@@H](O[C@H]2C[C@@H](O)[C@]3(CO)[C@H]4[C@H](O)C[C@]5(C)[C@@H](C6=CC(=O)OC6)CC[C@]5(O)[C@@H]4CC[C@]3(O)C2)[C@H](O)[C@H](O)[C@H]1O", "half-life": "> 120"}, {"smiles": "Cc1ccc(-c2noc([C@@H]3Cc4nc[nH]c4CN3Cc3cccc(C#N)c3)n2)cc1", "half-life": 11.4}, {"smiles": "Nc1nc(O)c(C2=C3C(=Nc4ccccc43)C(=O)NCC2)[nH]1", "half-life": "> 120"}, {"smiles": "CC(C)(C)Oc1ccc(OCC2Cc3ccccc3CN2C(=O)c2cccc3ccccc23)cc1", "note": "(stereo not given)", "half-life": 5.19}, {"smiles": "Cc1cccc(NC(c2ccccc2F)c2ccc3ccc(C)nc3c2O)n1", "note": "(stereo not given)", "half-life": 14.1}, {"smiles": "NC(N)=NS(=O)(=O)c1ccc(N)cc1", "half-life": 78.3}, {"smiles": "CC(Cc1ccccc1)(NC(=O)CN)c1ccccc1", "note": "(stereo not given)", "half-life": "> 120"}, {"smiles": "CCC1=c2cc(OC(=O)N3CCC(N4CCCCC4)CC3)ccc2=NC2=C3C=C4C(COC(=O)[C@]4(O)CC)C(=O)N3CC21", "note": "(stereo not given in full)", "half-life": "> 120"}, {"smiles": "Cc1cccc(N(C)C(=S)Oc2ccc3ccccc3c2)c1", "half-life": 2.99}, {"smiles": "COc1ccc(C2Nc3ccccc3C(=O)N2Cc2ccco2)cc1COc1ccc(NC(C)=O)cc1", "note": "(stereo not given)", "half-life": 2.15}]}]}
